From the NIST ThermoML archive (doi:10.1016/j.fluid.2010.02.012)

Test: excess molar enthalpy (molar enthalpy of mixing); xn = mol fraction of the nth substance listed
Conditions: 298.18 K, 101 kPa, Liquid, Calvet calorimetry

CCCCCCCCCC [decane] + CCO
Conditions | excess molar enthalpy [kcal/mol]
x2 = 0.0881 | 0.12
x2 = 0.1338 | 0.142
x2 = 0.1766 | 0.159
x2 = 0.2665 | 0.174
x2 = 0.3141 | 0.176
x2 = 0.4314 | 0.176
x2 = 0.5931 | 0.161
x2 = 0.6501 | 0.153
x2 = 0.7248 | 0.141
x2 = 0.7837 | 0.128
x2 = 0.8079 | 0.123
x2 = 0.848 | 0.105
x2 = 0.8829 | 0.0894
x2 = 0.9377 | 0.0576
x2 = 0.962 | 0.038
